Laboratory results: PubChem BioAssay (NCI)
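A five-concentration, 48-hour dose response in 96-well plates underlies each endpoint, interpolated linearly between surrounding concentrations. The concentration for full growth arrest is given as TGI.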

Assays:
Test in all cases: NCI-60 cell line screen, 48 h
[1] = tested on: DU-145 prostate
[2] = tested on: COLO 205 colon
[3] = tested on: T-47D breast
[4] = tested on: U251 CNS
[5] = tested on: NCI-H522 lung
[6] = tested on: CCRF-CEM leukemia
[7] = tested on: IGROV1 ovarian
[8] = tested on: HOP-92 NSCLC
[9] = tested on: OVCAR-8 ovarian
[10] = tested on: LOX IMVI melanoma

| SMILES | TGI [1] | TGI [2] | TGI [3] | TGI [4] | TGI [5] | TGI [6] | TGI [7] | TGI [8] | TGI [9] | TGI [10] |
| --- | --- | --- | --- | --- | --- | --- | --- | --- | --- | --- |
| NCCCN1CCN(CCCNc2ccc3ncn4c5ccccc5c(=O)c2c34)CC1 | 8.2 µM | 2.66 µM | 12.1 µM | > 25 µM | 1.52 µM | > 25 µM | 8.17 µM | > 25 µM | 19.5 µM | 4.07 µM |
| C1CN(C23OC4(N5CCOCC5)C5C6CC(C7C6C4C72)C53)CCO1 (centres undefined) | > 100 µM | > 100 µM | > 100 µM | > 100 µM | > 100 µM | > 100 µM | > 100 µM | > 100 µM | > 100 µM | > 100 µM |
| CCOC(=O)C1C2C1C1C(C(=O)OCC)C21 (centres undefined) | > 100 µM | > 100 µM | > 100 µM | > 100 µM | > 100 µM | > 100 µM | > 100 µM | > 100 µM | > 100 µM | > 100 µM |
| COc1ccc(C2=C(N)c3ccccc3C2=O)cc1 | > 100 µM | > 100 µM | > 100 µM | > 100 µM | > 100 µM | > 100 µM | > 100 µM | > 100 µM | > 100 µM | > 100 µM |
| CCCS(=O)OC1C(C2COC(C)(C)O2)OC2OC(C)(C)OC21 (centres undefined) | 47.3 µM | 27.2 µM | > 69.6 µM | 28.4 µM | 25.9 µM | 21.5 µM | 33.2 µM | 22.8 µM | 29.3 µM | 21.4 µM |
| O=c1c2cc(Cl)ccc2n2nnc3ccc(NCCNCCO)c1c32 | 8.91 µM | 2.68 µM | 7.52 µM | 1.94 µM | 3.03 µM | 4.44 µM | 6.26 µM | 6.1 µM | 2.53 µM | 1.96 µM |
| Cn1c(=O)n2n(c1=O)C1C(=CC2)C2C=CC1n1c(=O)n(C)c(=O)n12 (centres undefined) | > 100 µM | > 100 µM | > 100 µM | > 100 µM | > 100 µM | > 100 µM | > 100 µM | > 100 µM | > 100 µM | > 100 µM |
| NC(Cc1ccccc1)C(=O)O (centres undefined) | > 100 µM | > 100 µM | > 100 µM | > 100 µM | > 100 µM | > 100 µM | > 100 µM | > 100 µM | > 100 µM | > 100 µM |
| Cc1ccc2c(=O)c3c(O)c4c(cc3n(C)c2c1)OC(C)(C)C=C4 | > 10 µM | > 10 µM | > 10 µM | > 10 µM | > 10 µM | > 10 µM | > 10 µM | > 10 µM | > 10 µM | > 10 µM |
| C[N+](C)(C)c1nc(N)nc2c1ncn2C1OC(CO)C(O)C1O (centres undefined) | > 100 µM | > 100 µM | > 100 µM | > 100 µM | > 100 µM | > 100 µM | > 100 µM | > 100 µM | > 100 µM | > 100 µM |
| CCCCCCCCCCCOCCC1C(C(C)OCCN2CCCC2)OC2OC(C)(C)OC21 (centres undefined) | 11.3 µM | 3.88 µM | 4.8 µM | 5.72 µM | 1.05 µM | > 23.9 µM | 6.59 µM | 4.75 µM | 11.3 µM | 2.93 µM |
| COC(=O)[C@]12CCC(=O)N1[C@H](C(=O)O)Cc1c2[nH]c2ccccc12 | > 100 µM | > 100 µM | > 100 µM | > 100 µM | > 100 µM | > 100 µM | > 100 µM | > 100 µM | > 100 µM | > 100 µM |
| COc1cc(/C=C/C=C2\CC(C)C/C(=C\C=C\c3ccc(O)c(OC)c3)C2=O)ccc1O (centres undefined) | > 100 µM | > 100 µM | > 100 µM | 33 µM | 2.5 µM | 15.6 µM | 20.8 µM | 23.4 µM | 30.9 µM | 65.1 µM |
| Cc1nc2ccccc2n1CCc1nc2ccccc2[nH]1 | > 100 µM | > 100 µM | > 100 µM | > 100 µM | > 100 µM | > 100 µM | > 100 µM | > 100 µM | > 100 µM | > 100 µM |
| COc1ccc(/C=C(\C#N)c2nc(-c3cc4ccccc4oc3=O)cs2)cc1 | > 100 µM | > 100 µM | > 100 µM | 27.3 µM | 57.5 µM | > 100 µM | 62.2 µM | 36.2 µM | 44.4 µM | > 100 µM |
| Cc1cc(C(C)(C)C)c(OCCCN2CCOCC2)c(C(C)(C)C)c1 | 34.1 µM | 30.6 µM | 34.1 µM | 33.2 µM | 33.2 µM | 33.2 µM | 34.2 µM | 35 µM | 35.4 µM | 36.5 µM |
| O=[N+]([O-])c1ccc(-c2nc3ccccc3o2)cc1 | > 100 µM | > 100 µM | > 100 µM | > 100 µM | > 100 µM | > 100 µM | > 100 µM | > 100 µM | > 100 µM | > 100 µM |
| C[C@@H](CC(O)C(O)C(C)(C)O)C1CCC23CC12CCC1[C@@]2(C)CCC(=O)C(C)(C)C2CC(OC2OC(CO)C(O)C(O)C2O)[C@]13C (some centres undefined) | > 10 µM | > 10 µM | > 10 µM | > 10 µM | > 10 µM | > 10 µM | > 10 µM | > 10 µM | > 10 µM | > 10 µM |
| Cc1nc(-c2ccc(Cl)cc2)cn2c1nc1ccccc12 | > 100 µM | > 100 µM | > 21.4 µM | > 100 µM | > 100 µM | > 31.6 µM | > 100 µM | > 100 µM | > 100 µM | > 100 µM |
| CC1=C(C(=O)OC(C)C)C(c2cccc([N+](=O)[O-])c2)C(C(=O)OC(CO[N+](=O)[O-])CO[N+](=O)[O-])=C(C)N1 (centres undefined) | > 100 µM | 8.39 µM | > 100 µM | 6.97 µM | 6.77 µM | > 20.1 µM | > 87.6 µM | 7.38 µM | > 100 µM | 11 µM |
| c1csc(-c2csc(-c3cccs3)c2)c1 | > 100 µM | 32.8 µM | > 100 µM | > 100 µM | > 100 µM | > 100 µM | > 100 µM | 69.8 µM | > 100 µM | > 100 µM |
| C=C1C(=O)O[C@H]2[C@@H](O)[C@H](C)CCC/C(C)=C/CC[C@@]3(C)O[C@@H]3C[C@@H]12 | 19.1 µM | 12.3 µM | 12.3 µM | 26.9 µM | 8.28 µM | 11.7 µM | 15.6 µM | 8.04 µM | > 51.2 µM | 19.3 µM |
| Cn1c(=O)c2[nH]cnc2n(C)c1=O | > 100 µM | > 100 µM | > 100 µM |  | > 100 µM | > 100 µM | > 100 µM | > 100 µM | > 100 µM | > 100 µM |
| O=C(NC(Cc1c[nH]c2ccccc12)C(=O)O)/C(=C/c1ccccc1)NC(=O)c1ccccc1 (centres undefined) | > 100 µM | > 100 µM | > 100 µM | > 100 µM | > 88.7 µM | > 100 µM | > 100 µM | 94.8 µM | > 100 µM | > 100 µM |
| CCOC(=O)c1c(C)n(CCN2CCN(C)CC2)c2ccc(OC)cc12 | > 100 µM | 31.6 µM | > 100 µM | > 100 µM | > 100 µM | 71.4 µM | > 100 µM | 80.5 µM | > 100 µM | 35.1 µM |
| CC(CN(C)C)C(O)(c1ccccc1)c1ccccc1 (centres undefined) | > 100 µM | > 100 µM | > 100 µM | > 100 µM | > 100 µM | > 100 µM | > 100 µM | > 100 µM | > 100 µM | > 100 µM |
| COc1cc(/C=C2\N=C(c3ccccc3)N(c3ccc(C(=O)c4ccccc4)cc3N3C(=O)/C(=C/c4cc(OC)c(OC)c(OC)c4)N=C3c3ccccc3)C2=O)cc(OC)c1OC | 40.3 µM | 30 µM | 26.4 µM | > 100 µM | 26.1 µM | 39.8 µM | > 100 µM | > 100 µM | 73.2 µM | 39.2 µM |
| C=CC(=O)N1C/C(=C\c2ccc(F)cc2)C(=O)/C(=C/c2ccc(F)cc2)C1 | 13.5 µM | 1.81 µM | 39.7 µM | 2.28 µM | 1.94 µM | > 100 µM | 1.38 µM | 8.62 µM | 2.59 µM | 0.415 µM |
| CNc1ccc([N+](=O)[O-])cc1C(=O)N1CCC[C@H]1CO | > 100 µM | > 100 µM | > 100 µM | > 100 µM | > 100 µM | > 100 µM | > 100 µM | > 100 µM | > 100 µM | > 100 µM |
| CCSc1nn(-c2c3ccccc3nc3ccccc23)c(=S)s1 | > 100 µM | > 100 µM | > 100 µM | > 100 µM | > 100 µM | > 100 µM | > 100 µM | > 100 µM | > 100 µM | > 100 µM |
